# Experiment: Solubility of M4N in formulations containing modified celluloses (visual inspection); on Dissolution After Rotation: key: N represents 'No'; Y represents 'Yes.'
# Format: physicochemical
# Procedure: A 10 mL solution of 50% HP-β-CD (w/v) and 0.5% hydroxypropyl methylcellulose (“HPMC”) (w/v) for use as a solubilizing agent and/or excipient was made as follows: 5.9 mL of water suitable for injection into animals (“WFI”) were placed in a glass beaker containing a stir bar. The beaker was placed on a magnetic plate, and the stir bar was set to stir at medium speed. Five grams of HP-β-CD were added slowly to the stirring WFI, using a spatula to direct the HP-β-CD to the center of the beaker. The HP-β-CD solution was stirred for about 24 hr or until the HP-β-CD was dissolved completely upon visual inspection. The resulting solution measured about 9.4 mL. About 0.6 mL of WFI was added to this resulting solution to reach 10 mL, to produce a solution of 50% HP-β-CD (w/v). Fifty milligrams of HPMC were added to the 50% HP-β-CD solution and stirred for about 1 hr or until the HPMC was dissolved upon visual inspection. The final solution was stirred for about 1 hr and was then stored at room temperature, protected from light. This method of making modified cyclodextrins with modified celluloses may be scaled up or down to obtain the desired volume or concentration of HP-β-CD/HPMC solution. Other modified cyclodextrin/modified cellulose solutions may be similarly made, for example, by substituting HP-β-CD with other modified cyclodextrins, or HPMC with other modified celluloses, in the process described above.
# A 10 mL solution of M4N at a concentration of about 10 mg/mL in 50% HP-β-CD/0.5% HPMC was made as follows. About 10 mL of the 50% HP-β-CD/0.5% HPMC solution were added to a glass beaker containing a stir bar. The beaker was placed on a magnetic plate and the stir bar was set to stir at medium speed. About 100 mg of M4N were slowly added to the 50% HP-β-CD/0.5% HPMC in the center of the beaker with the aid of a spatula. The M4N/50% HP-β-CD/0.5% HPMC mixture was stirred for 24 hr or until all M4N was uniformly suspended without any clumps being present. The M4N/50% HP-β-CD/0.5% HPMC mixture was heated at about 90° C. for about 30 min. (or longer if a larger volume of solution was desired, for example, 1 hr at 90° C. for 500 mL of the M4N/50% HP-β-CD/0.5% HPMC mixture), or longer as needed to ensure complete dissolution of M4N. […] The final M4N/50% HP-β-CD/0.5% HPMC solution was stored at room temperature and was kept protected from light.
# A 10 mL solution of 5% ethylcellulose (“EC”) in ethanol (w/v) for use as a solubilizing agent and/or excipient was made as follows: 10 mL of 100% ethyl alcohol (“EtOH”) were placed in a glass beaker containing a stir bar, covered by a round Teflon® cover. The beaker was placed on a magnetic plate, and the stir bar was set to stir at medium speed. Five hundred (500) milligrams of EC was added slowly to the stirring ethanol, using a spatula to direct the EC to the center of the beaker so as to prevent EC powder from sticking to the beaker wall. The EC solution was stirred for about 2 hr or until the EC was dissolved completely upon visual inspection. The final solution was stored at room temperature, and was protected from light.
# A 10 mL solution of M4N at a concentration of about 20 mg/mL in 5% EC (w/v) (the “EC formulation”) was made as follows. About 10 mL of 5% EC formulation, made as described above, were added to a glass beaker containing a stir bar. The beaker was placed on a magnetic plate and the stir bar was set to stir at medium speed, and covered with a round Teflon® cover. About 200 mg of M4N were slowly added to the 5% EC formulation in the center of the beaker with the aid of a spatula to prevent M4N from sticking to the beaker wall. The M4N/EC mixture was stirred for 2 hr or until all M4N had dissolved or was uniformly suspended without any clumps being present. The M4N/EC mixture was heated at about 60° C. for about 30 min. […]
# [1] = 50% HP-β-CD, 0.5% HPMC, M4N 1 mg/mL
# [2] = 50% HP-β-CD, 0.5% HPMC, M4N 10 mg/mL
# [3] = EC 5% (w/v) in EtOH, M4N 1 mg/mL
# [4] = EC 5% (w/v) in EtOH, M4N 10 mg/mL
# [5] = EC 5% (w/v) in EtOH, M4N 20 mg/mL
smiles,measurement,setting,value
"COc1ccc(C[C@@H](C)[C@@H](C)Cc2ccc(OC)c(OC)c2)cc1OC [Formulation M4N, meso-1,4-bis(3,4-dimethoxyphenyl)-2,3-dimethylbutane]",Dissolution After Rotation,"2.3% HPMC, M4N 1 mg/mL",N
same,Dissolution After Heating,"2.3% HPMC, M4N 1 mg/mL, 90° C.",N at 90 °C
same,Dissolution After Rotation,"2.3% HPMC, M4N 10 mg/mL",N
same,Dissolution After Heating,"2.3% HPMC, M4N 10 mg/mL, 90° C.",N at 90 °C
same,Dissolution After Rotation,"2.3% HPMC, M4N 50 mg/mL",N
same,Dissolution After Heating,"2.3% HPMC, M4N 50 mg/mL, 90° C.",N at 90 °C
same,Dissolution After Rotation,"2.3% HPMC, M4N 100 mg/mL",N
same,Dissolution After Heating,"2.3% HPMC, M4N 100 mg/mL, 90° C.",N at 90 °C
same,Dissolution After Rotation,[1],N
same,Stability Time at Room Temperature,[1],>7 days
same,Dissolution After Heating,"50% HP-β-CD, 0.5% HPMC, M4N 1 mg/mL, 90° C.",Y at 90 °C
same,Dissolution After Rotation,[2],N
same,Stability Time at Room Temperature,[2],>7 days
same,Dissolution After Heating,"50% HP-β-CD, 0.5% HPMC, M4N 10 mg/mL, 90° C.",Y at 90 °C
same,Dissolution After Rotation,"50% HP-β-CD, 0.5% HPMC, M4N 50 mg/mL",N
same,Dissolution After Heating,"50% HP-β-CD, 0.5% HPMC, M4N 50 mg/mL, 90° C.",N at 90 °C
same,Dissolution After Rotation,"CMC (High Viscosity) 1% (w/v), M4N 1 mg/mL",N
same,Dissolution After Heating,"CMC (High Viscosity) 1% (w/v), M4N 1 mg/mL, 90° C.",N at 90 °C
same,Dissolution After Rotation,"CMC (High Viscosity) 1% (w/v), M4N 10 mg/mL",N
same,Dissolution After Heating,"CMC (High Viscosity) 1% (w/v), M4N 10 mg/mL, 90° C.",N at 90 °C
same,Dissolution After Rotation,"CMC (Low Viscosity) 4%, M4N 1 mg/mL",N
same,Dissolution After Heating,"CMC (Low Viscosity) 4%, M4N 1 mg/mL, 90° C.",N at 90 °C
same,Dissolution After Rotation,"CMC (Low Viscosity) 4%, M4N 10 mg/mL",N
same,Dissolution After Heating,"CMC (Low Viscosity) 4%, M4N 10 mg/mL, 90° C.",N at 90 °C
same,Dissolution After Rotation,[3],Y
same,Stability Time at Room Temperature,[3],>3 days
same,Dissolution After Rotation,[4],N
same,Stability Time at Room Temperature,[4],>3 days
same,Dissolution After Heating,"EC 5% (w/v) in EtOH, M4N 10 mg/mL, 40° C.",Y at 40 °C
same,Dissolution After Rotation,[5],N
same,Stability Time at Room Temperature,[5],>3 days
same,Dissolution After Heating,"EC 5% (w/v) in EtOH, M4N 20 mg/mL, 60° C.",Y at 60 °C
same,Dissolution After Rotation,"EC 5% (w/v) in EtOH, M4N 30 mg/mL",N
same,Dissolution After Heating,"EC 5% (w/v) in EtOH, M4N 30 mg/mL, 60° C.",Y at 60 °C
same,Dissolution After Rotation,"EC 5% (w/v) in EtOH, M4N 50 mg/mL",N
same,Dissolution After Heating,"EC 5% (w/v) in EtOH, M4N 50 mg/mL, 90° C.",Y at 90 °C
same,Dissolution After Rotation,"EC 5% (w/v) in EtOH, M4N 100 mg/mL",N
same,Dissolution After Heating,"EC 5% (w/v) in EtOH, M4N 100 mg/mL, 90° C.",Y at 90 °C
same,Stability at Room Temperature,"M4N 1 mg/mL and 10 mg/mL in 50% HP-β-CD/0.5% HPMC, heated at 90° C., after cool down",greater than 7 days
same,stable at room temperature,"M4N 1 mg/mL in EC formulation (5% EC in EtOH), without heat",greater than 3 days
same,stable at room temperature,"M4N 10 mg/mL in EC formulation, dissolved at 40° C.",greater than 3 days
same,stable at room temperature,"M4N 20 mg/mL in EC formulation, dissolved at 60° C.",greater than 3 days
same,solution upon cooling,"M4N 30 mg/mL in EC formulation, soluble at 60° C.",did not remain in solution upon cooling
same,dissolution,M4N 50 mg/mL in 50% HP-β-CD/0.5% HPMC at 90° C.,did not dissolve
same,solution upon cooling,"M4N 50 mg/mL or 100 mg/mL in EC formulation, soluble at 90° C.",did not remain in solution upon cooling
same,Dissolution After Rotation,"MC (Low viscosity) 2% (w/v), M4N 1 mg/mL",N
same,Dissolution After Heating,"MC (Low viscosity) 2% (w/v), M4N 1 mg/mL, 90° C.",N at 90 °C
same,Dissolution After Rotation,"MC (Low viscosity) 2% (w/v), M4N 10 mg/mL",N
same,Dissolution After Heating,"MC (Low viscosity) 2% (w/v), M4N 10 mg/mL, 90° C.",N at 90 °C
